In one data set the test system is abca4 null mutant mice. The data set is described as follows: A2PE-H2 and A2E as a function of HPR dose, 28 days. The format is in vivo, mouse. The conditions noted are these: HPR daily for 28 days, several doses. As to the method:
Group averages from the data shown in panels A-G of FIG. 18 in Example 25 (28 day time points) are plotted to illustrate the strong correlation between increases in serum HPR and decreases in serum retinol (see FIG. 12). Reductions in serum retinol are highly correlated with reductions in A2E and precursor compounds (A2PE-H2). A pronounced reduction in A2PE-H2 in the 2.5 mg/kg dosage group (˜47%) is observed when the serum retinol reduction is only 20%. The reason for this disproportionate reduction is related to the inherently lower ocular retinoid content in this group of 2-month old animals compared to the other groups. It is likely that if these animals had been maintained on the 2.5 mg/kg dose for a more prolonged period, a greater reduction in A2E would also be realized.
ABCA4 null mutant mice were given the indicated dose of HPR in DMSO or DMSO alone daily for 28 days (n=16 mice per treatment group). At study onset, mice in the 2.5 mg/kg group were 2 months of age, mice in the other treatment groups were 3 months of age. At the indicated times, representative mice were taken from each group (n=4) for analysis of A2E precursor compounds (see FIG. 18, A2PE-H2, panels A, C and E) and A2E (see FIG. 18, panels B, D and F). […] Sample extracts were analyzed by LC. […]

The test system of a further data set is abcr null mutant mice. The data set is described as follows: Lipofuscin autofluorescence in RPE and light microscopy of retina. The format is in vivo, mouse. Conditions: 28 days of HPR. As to the method: Treatment conditions are as described above.
HPR (10 mg/kg in DMSO) was administered to ABCA4−/− mice daily for a period of 28 days. Control ABCA4−/− mice received only DMSO for the same period. […] Importantly, the observed reductions in lipofuscin autofluorescence persist long after cessation of HPR therapy. HPR (10 mg/kg), or DMSO, administration was discontinued following 28 days of treatment and re-evaluated A2E and precursor levels after 2 weeks and after 4 weeks.

Entries after “also recorded” stand apart in the source; their conditions may differ.

Consider `CC1=C(/C=C/C(C)=C/C=C/C(C)=C/C(=O)Nc2ccc(O)cc2)C(C)(C)CCC1` [HPR, N-(4-hydroxyphenyl)retinamide], for which, in the data set with abca4 null mutant mice, the “A2PE-H2 and A2E during the study period” value is “dose-dependent reductions”. For the same compound, in the data set on abcr null mutant mice, the “lipofuscin autofluorescence in the RPE” value is on record as “significantly reduces; also recorded: comparable to levels observed in untreated wild type mice” and the “retinal morphology by light microscopy” value was “No aberrant morphology or compromise of the integrity in retinal cytostructure was observed; also recorded: no alteration of retina cytostructure or morphology”.

These data come from patent US8410168B2, “Methods and compositions for treating ophthalmic conditions with retinyl derivatives” (Acucela, Inc., priority 2004, dated 2013).
